# Experimental data: ChEMBL document CHEMBL3507680, “University of Dundee, Gates Library screen for HepG2 cell viability”
# Test: Human HepG2 cell viability assay in 384 well format
# Format: toxicity, cell-based
# Set-up: dose 125 nL, time 70.5 hour; cytotoxicity at 70.5 h: concentration not given beside the values
# Conditions: HepG2 cells, read-out: Inhibition
row,Structure (SMILES),cytotoxicity at 70.5 h [%]
1,COc1ccc(-c2n[nH]c(C)c2CC(=O)NCC2CCOCC2)cc1,-10.5
2,CC(C)n1ccc2c(NC(=O)c3n[nH]c4c3CCC4)cccc21,7.25
3,CSc1ccc(C2SCC(=O)Nc3c2c(=O)[nH]n3C2CCOCC2)cc1 (stereo not drawn),-23.9
4,O=C(CCCn1cnc2ccccc2c1=O)Nc1nc[nH]n1,22.9
5,CC(=O)NC1CCCc2c1[nH]c1ccc(F)cc21 (stereo not drawn),29.6
6,CC(C)Cc1nc(NC(=O)c2cc(-c3cccnc3)n[nH]2)n[nH]1,-5.07
7,O=C(c1cc2c(Cl)cccc2[nH]1)N1CCN(CCc2ccccn2)CC1,24.6
8,CC(=O)Nc1cccc2c1ccn2CC(=O)Nc1n[nH]c(CC(C)C)n1,-5.98
9,Cn1nc(-c2cccc(Cl)c2)c(Br)c1C(=O)O,-16.9
10,Cn1/c(=N/C(=O)CSCC(=O)Nc2nccs2)sc2ccccc21,2.4
11,CN1CCOCC12CCN(Cc1nccs1)CC2,3.99
12,CC(C)NC(=O)c1nc2c(s1)CCCN2C(C)C,7.18
13,CCc1cnc(N2C[C@@H]3[C@@H](C(=O)NCC(C)C)CCS(=O)(=O)[C@@H]3C2)nc1,-5.83
14,CN1CCCc2sc(C(=O)NC3CC3)nc21,-1.86
15,Cn1nc(CN2CCCC2)c2c1CN(C(=O)c1ccncc1F)CC2,-3.12
16,CCc1cnc(N2C[C@@H]3[C@@H](C(=O)NC(C)C)CCS(=O)(=O)[C@@H]3C2)nc1,0.524
17,COCCN(C)C(=O)c1nc2c(s1)CCCN2C(=O)C1CC1,-3.1
18,COCCO[C@@H]1CCN(c2cc(OC)ncn2)[C@H]1Cc1cnn(C)c1,-4.31
19,CCOCC1CC2(CCN(C(=O)C3CCSCC3)CC2)CO1 (stereo not drawn),8.92
20,CS(=O)(=O)N1CCO[C@@H]2CN(C(=O)COC3CCCC3)C[C@@H]2C1,7.96
21,O=C(c1ccco1)N1CCc2onc(CN3CCCC3)c2C1,7.25
22,CC(=O)N1CCCC2(CCN(Cc3ccc(Cl)c(F)c3)C2)C1 (stereo not drawn),-3.79

row,Structure (SMILES),cytotoxicity at 70.5 h [%]
1,COCCNC(=O)c1nc2c(s1)CCCN2Cc1ccccc1,-6.6
2,COc1cc(N2CC[C@@H]3O[C@@H](c4ccncn4)C[C@H]3C2)ncn1,7.96
3,COc1cc(N2CC[C@@H]3O[C@@H](c4ccnc(C)n4)C[C@H]3C2)ncn1,-4.55
4,CN(C)C(=O)NCc1ncn2c1CN(S(C)(=O)=O)CCC2,-4.56
5,CCOCC1c2c(ncn2C(C)C)CCN1C(=O)C1CC1 (stereo not drawn),-3.05
6,CN(C)C(=O)N1CCC2(CC1)CNc1ccc(F)cc12,-2.37
7,O=C(C1CC1)N1CCC2(CC1)CNc1ccc(F)cc12,-10.9
8,CN1C(=O)CCCC12CCCN(Cc1nccs1)C2 (stereo not drawn),9.31
9,O=C([C@@H]1COC[C@H]2CN(c3ccncn3)C[C@H]21)N1CCCCO1,-6.51
10,Cn1nccc1-c1nc2c(cc1C(=O)O)CCN(C(=O)C1CC1)CC2,-2.87
11,O=C(c1ccccn1)N1CC[C@H]2[C@H]1CCN2S(=O)(=O)C1CC1,6.25
12,C1CN(CC2CCOCC2)Cc2c(COCC3CC3)nnn2C1,-7.76
13,CCCS(=O)(=O)N1C[C@@H]2CN(Cc3ccco3)CCO[C@@H]2C1,-2.23
14,c1cnc(N2CCOCC3(CN(Cc4cc[nH]n4)CCO3)C2)nc1 (stereo not drawn),7.31
15,CCC1=N[C@@]2(CC[C@@H]3CN(Cc4ccccc4F)C[C@@H]32)C(=O)N1,-6.13
16,CC(C)NC1CCc2c(ccc(=O)n2CCN2CCCC2=O)C1 (stereo not drawn),-4.58
17,O=C(CO)N1CCC(F)(F)C2(CCN(c3ccccc3)C2)C1 (stereo not drawn),1.4
18,Cc1nc2c(cc1C(=O)O)CCN(CC1CC1)CC2,-3.49
19,O=C(O)CN1CCC(F)(F)C2(CCN(c3ccccc3)C2)C1 (stereo not drawn),-5.61
20,CCOCC1c2c(ncn2C(C)C)CCN1C(C)C (stereo not drawn),-7.26
21,CN(C)C[C@@H]1C[C@@H]2CN(c3ncc(F)cn3)CC[C@@H]2N1C,-3.26
